Drawing on PubChem BioAssay (NCI), this text covers TGI for nine molecules.

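96-well plates; 48 h exposure; 5 concentrations. Endpoints by linear interpolation between flanking doses. Not reached: highest tested concentration assigned. At the TGI there is no net growth.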 Where only a bound is given, the exact number is not on record here.

Some test systems named below: CAKI-1 renal; HL-60(TB) leukemia; HOP-62 NSCLC; HOP-92 NSCLC; IGROV1 ovarian; M14 melanoma; MOLT-4 leukemia; OVCAR-4 ovarian; RPMI-8226 leukemia; SK-MEL-2 melanoma; SK-MEL-28 melanoma; SNB-19 CNS; SR leukemia; SW-620 colon; TK-10 renal; UACC-257 melanoma; HCT-116 colon; RXF 393 renal; SK-MEL-5 melanoma.
Test in all cases: inhibition of tumour cell growth, NCI panel, 48 h

Consider `Nc1ncnc2sc(Nc3ccccc3)nc12`, for which the TGI in the assay with CAKI-1 renal was greater than 100 µM; in the assay with HL-60(TB) leukemia it was 64.7 µM; in the assay with HOP-62 NSCLC, greater than 100 µM; in the assay with HOP-92 NSCLC it was greater than 100 µM; in the assay on IGROV1 ovarian it was greater than 100 µM; in the assay on M14 melanoma, greater than 100 µM. Further, the TGI in the assay on MOLT-4 leukemia, in the assay with OVCAR-4 ovarian, with RPMI-8226 leukemia, with SK-MEL-2 melanoma, with SK-MEL-28 melanoma and in the assay on SNB-19 CNS was greater than 100 µM throughout. In addition, the TGI in the assay on SR leukemia, in the assay on SW-620 colon, in the assay on TK-10 renal and with UACC-257 melanoma was greater than 100 µM each time.
For `O=C1NC2=NN=C(c3ccc(Br)cc3)CN2NC12c1ccccc1-c1ccccc12`, the TGI in the assay on CAKI-1 renal, with HCT-116 colon, in the assay on HOP-62 NSCLC, in the assay with HOP-92 NSCLC, in the assay with IGROV1 ovarian and in the assay with M14 melanoma was greater than 100 µM throughout. For the same molecule, the TGI in the assay with OVCAR-4 ovarian, in the assay with RXF 393 renal, in the assay with SK-MEL-2 melanoma, in the assay on SK-MEL-28 melanoma, in the assay on SK-MEL-5 melanoma and in the assay with SNB-19 CNS was greater than 100 µM in each case. Besides, the TGI in the assay with SR leukemia, in the assay with SW-620 colon, in the assay with TK-10 renal and in the assay on UACC-257 melanoma was greater than 100 µM each time.
Consider `COCCOCCOCCC(=O)NC1CC2CCC1(C)C2(C)C` (centres undefined), for which the TGI with CAKI-1 renal, with HCT-116 colon, with HL-60(TB) leukemia, with HOP-62 NSCLC, with IGROV1 ovarian and in the assay on M14 melanoma was greater than 100 µM throughout. Also, the TGI with MOLT-4 leukemia, in the assay with OVCAR-4 ovarian, in the assay on RPMI-8226 leukemia, in the assay on RXF 393 renal, with SK-MEL-28 melanoma and in the assay on SK-MEL-5 melanoma was greater than 100 µM in each case. Also, the TGI in the assay on SNB-19 CNS, with SR leukemia, in the assay with SW-620 colon, in the assay with TK-10 renal and in the assay with UACC-257 melanoma was greater than 100 µM each time.
As to `Cn1c(=O)c(C(=O)NC23CC4CC(CC(C4)C2)C3)c(O)c2ccccc21`, the TGI with HCT-116 colon was 57.9 µM; in the assay with HL-60(TB) leukemia, greater than 100 µM; in the assay with HOP-62 NSCLC it was 43.6 µM; with IGROV1 ovarian it was 95.6 µM; in the assay on M14 melanoma, greater than 100 µM; in the assay with MOLT-4 leukemia, greater than 100 µM. In addition, the TGI in the assay with RPMI-8226 leukemia is greater than 100 µM; in the assay with RXF 393 renal, 35.9 µM; in the assay on SK-MEL-28 melanoma, greater than 100 µM; in the assay on SNB-19 CNS, 43.9 µM; in the assay on SR leukemia, greater than 100 µM; in the assay with SW-620 colon it was greater than 100 µM. Also, the TGI in the assay with TK-10 renal was 48 µM; in the assay with UACC-257 melanoma, greater than 100 µM.
As for `Cc1ccc(C=C(C(=O)O)C(=O)O)o1`, the TGI in the assay with CAKI-1 renal, with HCT-116 colon, in the assay on HL-60(TB) leukemia, in the assay on HOP-62 NSCLC, in the assay with IGROV1 ovarian and in the assay with M14 melanoma was greater than 100 µM throughout. The TGI with MOLT-4 leukemia, in the assay with RPMI-8226 leukemia, with RXF 393 renal, in the assay with SK-MEL-2 melanoma, in the assay with SK-MEL-28 melanoma and with SK-MEL-5 melanoma was greater than 100 µM in each case. In addition, the TGI in the assay on SNB-19 CNS, in the assay with SR leukemia, with SW-620 colon, in the assay on TK-10 renal and in the assay with UACC-257 melanoma was greater than 100 µM each time.
In the case of `Nc1ncnc2c1ncn2CCOC(c1ccccc1)P(=O)(O)O` (centres undefined), the TGI in the assay on CAKI-1 renal, in the assay on HCT-116 colon, in the assay with HL-60(TB) leukemia, in the assay on IGROV1 ovarian, with MOLT-4 leukemia and in the assay with RXF 393 renal was greater than 100 µM each time. The TGI in the assay with SK-MEL-2 melanoma, in the assay on SK-MEL-28 melanoma, in the assay on SK-MEL-5 melanoma, with SNB-19 CNS, in the assay with SR leukemia and in the assay with SW-620 colon was greater than 100 µM throughout. In addition, the TGI with TK-10 renal and in the assay with UACC-257 melanoma was greater than 100 µM throughout.
On to `CSc1nc(C)cc(=O)n1C1OC(COC(C)=O)C(OC(C)=O)C(OC(C)=O)C1OC(C)=O` (centres undefined), for which the TGI in the assay on HCT-116 colon, in the assay on HL-60(TB) leukemia, with IGROV1 ovarian, in the assay on M14 melanoma, in the assay with MOLT-4 leukemia and in the assay with OVCAR-4 ovarian was greater than 100 µM each time. Also, the TGI with RPMI-8226 leukemia, in the assay with SK-MEL-2 melanoma, with SK-MEL-28 melanoma, in the assay with SK-MEL-5 melanoma, in the assay with SNB-19 CNS and in the assay on SR leukemia was greater than 100 µM in each case. The TGI with SW-620 colon, in the assay on TK-10 renal and in the assay on UACC-257 melanoma was greater than 100 µM throughout.
As to `COc1ccc2nc(-c3ccc(O)cc3)ccc2c1`, the TGI with HCT-116 colon, with HL-60(TB) leukemia, in the assay with HOP-62 NSCLC, in the assay with HOP-92 NSCLC, with IGROV1 ovarian and in the assay on M14 melanoma was greater than 100 µM in each case. In addition, the TGI in the assay with MOLT-4 leukemia, with OVCAR-4 ovarian, with RPMI-8226 leukemia, in the assay on RXF 393 renal, in the assay with SK-MEL-28 melanoma and in the assay with SK-MEL-5 melanoma was greater than 100 µM in each case. For the same molecule, the TGI in the assay on SNB-19 CNS, in the assay with SR leukemia, in the assay on SW-620 colon, in the assay on TK-10 renal and with UACC-257 melanoma was greater than 100 µM in each case.
In the case of `O=C1c2ccccc2/C=C\C(c2ccccc2)=N/N1c1ccccc1Cl`, the TGI was 54.5 µM in the assay with CAKI-1 renal; greater than 100 µM in the assay on HCT-116 colon; 54.8 µM in the assay with HL-60(TB) leukemia; 92.8 µM in the assay on HOP-62 NSCLC; 78.4 µM with HOP-92 NSCLC; greater than 100 µM in the assay with IGROV1 ovarian. Further, the TGI in the assay on M14 melanoma is 51.2 µM; with MOLT-4 leukemia, 77.1 µM; with OVCAR-4 ovarian it was 97.2 µM; with RPMI-8226 leukemia, 80.5 µM; with RXF 393 renal, 47.7 µM; in the assay with SK-MEL-2 melanoma, greater than 100 µM. For the same molecule, the TGI in the assay with SK-MEL-28 melanoma was greater than 100 µM; in the assay with SK-MEL-5 melanoma, 26.3 µM; in the assay on SNB-19 CNS it was greater than 100 µM; in the assay with SW-620 colon, greater than 100 µM; with TK-10 renal, greater than 100 µM; with UACC-257 melanoma, 90.5 µM.
